Experimental data reported in US10035794B2, “Heterocyclic derivatives and their use in the treatment of neurological disorders” (NOVARTIS AG, priority 2011, dated 2018).

Key:
[1] = Test 4: Inhibition of Cellular Release of Amyloid Peptide 1-40; type: cell-based, Chinese hamster; conditions: Cricetulus griseus, CHO, 24 h; read-out: Amyloid-β1-40 release IC50
Experimental: Chinese hamster ovary cells are transfected with the human gene for amyloid precursor protein. The cells are plated at a density of 8000 cells/well into 96-well microtiter plates and cultivated for 24 hours in DMEM cell culture medium containing 10% FCS. The test compound is added to the cells at various concentrations, and the cells are cultivated for 24 hours in the presence of the test compound.

Human BACE-1 = Human BACE-1 (Homo sapiens (Human), UniProt P56817); experiment: Test 1: Inhibition of Human BACE-1; conditions: read-out: BACE-1 IC50; mean IC50, recombinant BACE-1, pH 4.5
Sequence of Human BACE-1 (P56817 46-457): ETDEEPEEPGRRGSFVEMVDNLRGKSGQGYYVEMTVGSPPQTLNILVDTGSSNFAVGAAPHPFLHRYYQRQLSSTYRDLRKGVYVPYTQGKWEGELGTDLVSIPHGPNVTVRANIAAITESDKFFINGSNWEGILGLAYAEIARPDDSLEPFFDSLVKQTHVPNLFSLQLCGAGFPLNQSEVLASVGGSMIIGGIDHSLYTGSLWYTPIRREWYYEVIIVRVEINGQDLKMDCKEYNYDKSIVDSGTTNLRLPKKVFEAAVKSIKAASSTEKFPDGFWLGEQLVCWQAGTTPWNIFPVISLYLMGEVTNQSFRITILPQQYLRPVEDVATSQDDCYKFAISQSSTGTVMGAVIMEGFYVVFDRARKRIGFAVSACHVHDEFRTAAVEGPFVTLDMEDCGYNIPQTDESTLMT

Human BACE-2 = Human BACE-2 (Homo sapiens (Human), UniProt Q9Y5Z0); experiment: Test 2: Inhibition of Human BACE-2; type: biochemical; conditions: mean IC50, recombinant BACE-2, pH 4.5
Sequence of Human BACE-2 (Q9Y5Z0 63-473): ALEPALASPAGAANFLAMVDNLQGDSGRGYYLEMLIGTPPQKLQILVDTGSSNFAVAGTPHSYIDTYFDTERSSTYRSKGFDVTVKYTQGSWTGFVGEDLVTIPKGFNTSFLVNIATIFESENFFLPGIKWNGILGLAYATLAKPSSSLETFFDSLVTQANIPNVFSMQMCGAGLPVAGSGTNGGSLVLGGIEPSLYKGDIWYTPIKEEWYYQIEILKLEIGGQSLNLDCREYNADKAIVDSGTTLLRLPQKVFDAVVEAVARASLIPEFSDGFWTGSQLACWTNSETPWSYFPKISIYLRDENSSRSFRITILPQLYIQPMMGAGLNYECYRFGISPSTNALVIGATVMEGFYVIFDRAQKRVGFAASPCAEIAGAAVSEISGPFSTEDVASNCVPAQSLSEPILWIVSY
Source text: Test 2: Inhibition of Human BACE-2

NC1=NC(CF)(c2cccc(NC(=O)c3ccc(Cl)cn3)n2)COC1 (centres unmarked) [Example 3, 5-{6-[(5-Chloro-pyridine-2-carbonyl)-amino]-pyridin-2-yl}-5-fluoromethyl-5,6-dihydro-2H-[1,4]oxazin-3-yl-ammonium trifluoro acetate]
IC50 [1]: 140 nM | IC50 (Human BACE-1): 2600 nM

NC1=NC(CF)(c2cccc(NC(=O)c3ccc(Br)cn3)n2)COC1 (centres unmarked) [Example 4, 5-Bromo-pyridine-2-carboxylic acid [6-(5-amino-3-fluoromethyl-3,6-dihydro-2H-[1,4]oxazin-3-yl)-pyridin-2-yl]-amide]
IC50 (Human BACE-2): 1700 nM | IC50 [1]: 98 nM | IC50 (Human BACE-1): 1600 nM

Cc1cc(C#N)cnc1C(=O)Nc1cccc(C2(CF)COCC(N)=N2)n1 (centres unmarked) [Example 5, 5-{6-[(5-Cyano-3-methyl-pyridine-2-carbonyl)-amino]-pyridin-2-yl}-5-fluoromethyl-5,6-dihydro-2H-[1,4]oxazin-3-yl-ammonium trifluoro acetate]
IC50 (Human BACE-2): 1000 nM | IC50 [1]: 40 nM | IC50 (Human BACE-1): 270 nM

C[C@@]1(c2cc(NC(=O)c3ncc(OC(F)F)cc3Cl)ncc2F)CO[C@@](C)(C(F)(F)F)C(N)=N1 [Example 36, 3-Chloro-5-difluoromethoxy-pyridine-2-carboxylic acid [4-((3R,6R)-5-amino-3,6-dimethyl-6-trifluoromethyl-3,6-dihydro-2H-[1,4]oxazin-3-yl)-5-fluoro-pyridin-2-yl]-amide]
IC50 [1]: 410 nM

Cc1cc(C#N)cnc1C(=O)Nc1cc([C@]2(C)COC(CF)(CF)C(N)=N2)c(F)cn1 [Example 37, 5-Cyano-3-methyl-pyridine-2-carboxylic acid [4-((R)-5-amino-6,6-bis-fluoromethyl-3-methyl-3,6-dihydro-2H-[1,4]oxazin-3-yl)-5-fluoro-pyridin-2-yl]-amide]
IC50 [1]: 83 nM

Cc1cc(C#N)cnc1C(=O)Nc1ccc(F)c([C@]2(C(F)F)COCC(N)=N2)n1 [Example 38, 5-Cyano-3-methyl-pyridine-2-carboxylic acid [6-((R)-5-amino-3-difluoromethyl-3,6-dihydro-2H-[1,4]oxazin-3-yl)-5-fluoro-pyridin-2-yl]-amide]
IC50 [1]: 5 nM

Cc1cc(C#N)cnc1C(=O)Nc1ccc(F)c([C@@]2(C(F)F)COCC(N)=N2)n1 [Example 39, 5-Cyano-3-methyl-pyridine-2-carboxylic acid [6-((S)-5-amino-3-difluoromethyl-3,6-dihydro-2H-[1,4]oxazin-3-yl)-5-fluoro-pyridin-2-yl]-amide]
IC50 [1]: 290 nM

N#Cc1cnc(C(=O)Nc2ccc(F)c([C@]3(C(F)F)COCC(N)=N3)n2)c(Cl)c1 [Example 40, 3-Chloro-5-cyano-pyridine-2-carboxylic acid [6-((R)-5-amino-3-difluoromethyl-3,6-dihydro-2H-[1,4]oxazin-3-yl)-5-fluoro-pyridin-2-yl]-amide]
IC50 [1]: 12 nM

Cc1cnc(C(=O)Nc2ccc(F)c([C@]3(C)CO[C@@](C)(C(F)(F)F)C(N)=N3)n2)c(C)n1 [Example 41, 3,5-Dimethyl-pyrazine-2-carboxylic acid [6-((3R,6R)-5-amino-3,6-dimethyl-6-trifluoromethyl-3,6-dihydro-2H-[1,4]oxazin-3-yl)-5-fluoro-pyridin-2-yl]amide]
IC50 [1]: 161 nM

C[C@@]1(c2nc(NC(=O)c3ncc(OCCCF)nc3N)ccc2F)CO[C@@](C)(C(F)(F)F)C(N)=N1 [Example 42, 3-Amino-5-(3-fluoro-propoxy)-pyrazine-2-carboxylic acid [6-((3R,6R)-5-amino-3,6-dimethyl-6-trifluoromethyl-3,6-dihydro-2H-[1,4]oxazin-3-yl)-5-fluoro-pyridin-2-yl]amide]
IC50 [1]: 72 nM

COCCn1ccc2nc(C(=O)Nc3ccc(F)c([C@]4(C)CO[C@@](C)(C(F)(F)F)C(N)=N4)n3)c(N)nc21 [Example 43, 3-Amino-5-(2-methoxy-ethyl)-5H-pyrrolo[2,3-b]pyrazine-2-carboxylic acid [6-((3R,6R)-5-amino-3,6-dimethyl-6-trifluoromethyl-3,6-dihydro-2H-[1,4]oxazin-3-yl)-5-fluoro-pyridin-2-yl]amide]
IC50 [1]: 370 nM

C[C@@]1(c2nc(NC(=O)c3nc4ccn(CC(F)F)c4nc3N)ccc2F)CO[C@@](C)(C(F)(F)F)C(N)=N1 [Example 45, 3-Amino-5-(2,2-difluoro-ethyl)-5H-pyrrolo[2,3-b]pyrazine-2-carboxylic acid [6-((3R,6R)-5-amino-3,6-dimethyl-6-trifluoromethyl-3,6-dihydro-2H-[1,4]oxazin-3-yl)-5-fluoro-pyridin-2-yl]amide]
IC50 [1]: 3600 nM
